Where two headings read alike, the source gives them in different places.
Legend:
Assay in all cases: biochemical
Set-up in all cases: KINOMEscan active site-directed competition binding assay (DiscoveRx), 456 kinases, per cent of control at 300 nM
Conditions in all cases: read-out: Percent of Control (%)
[1] = target: T1, RSK4(Kin.Dom.2-C-terminal) (Homo sapiens, UniProt Q9UK32)
T1 construct: gene RPS6KA6; Kin.Dom.2-C-terminal
Summary of the method: (§1)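 Compounds at 300 nmol/L screened against 456 kinases by KINOMEscan, a competition binding assay measuring displacement at the kinase active site.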

[2] = target: T2, QSK (Homo sapiens, UniProt Q9Y2K2)
T2 construct: gene SIK3
T2 sequence (Q9Y2K2 whole entry): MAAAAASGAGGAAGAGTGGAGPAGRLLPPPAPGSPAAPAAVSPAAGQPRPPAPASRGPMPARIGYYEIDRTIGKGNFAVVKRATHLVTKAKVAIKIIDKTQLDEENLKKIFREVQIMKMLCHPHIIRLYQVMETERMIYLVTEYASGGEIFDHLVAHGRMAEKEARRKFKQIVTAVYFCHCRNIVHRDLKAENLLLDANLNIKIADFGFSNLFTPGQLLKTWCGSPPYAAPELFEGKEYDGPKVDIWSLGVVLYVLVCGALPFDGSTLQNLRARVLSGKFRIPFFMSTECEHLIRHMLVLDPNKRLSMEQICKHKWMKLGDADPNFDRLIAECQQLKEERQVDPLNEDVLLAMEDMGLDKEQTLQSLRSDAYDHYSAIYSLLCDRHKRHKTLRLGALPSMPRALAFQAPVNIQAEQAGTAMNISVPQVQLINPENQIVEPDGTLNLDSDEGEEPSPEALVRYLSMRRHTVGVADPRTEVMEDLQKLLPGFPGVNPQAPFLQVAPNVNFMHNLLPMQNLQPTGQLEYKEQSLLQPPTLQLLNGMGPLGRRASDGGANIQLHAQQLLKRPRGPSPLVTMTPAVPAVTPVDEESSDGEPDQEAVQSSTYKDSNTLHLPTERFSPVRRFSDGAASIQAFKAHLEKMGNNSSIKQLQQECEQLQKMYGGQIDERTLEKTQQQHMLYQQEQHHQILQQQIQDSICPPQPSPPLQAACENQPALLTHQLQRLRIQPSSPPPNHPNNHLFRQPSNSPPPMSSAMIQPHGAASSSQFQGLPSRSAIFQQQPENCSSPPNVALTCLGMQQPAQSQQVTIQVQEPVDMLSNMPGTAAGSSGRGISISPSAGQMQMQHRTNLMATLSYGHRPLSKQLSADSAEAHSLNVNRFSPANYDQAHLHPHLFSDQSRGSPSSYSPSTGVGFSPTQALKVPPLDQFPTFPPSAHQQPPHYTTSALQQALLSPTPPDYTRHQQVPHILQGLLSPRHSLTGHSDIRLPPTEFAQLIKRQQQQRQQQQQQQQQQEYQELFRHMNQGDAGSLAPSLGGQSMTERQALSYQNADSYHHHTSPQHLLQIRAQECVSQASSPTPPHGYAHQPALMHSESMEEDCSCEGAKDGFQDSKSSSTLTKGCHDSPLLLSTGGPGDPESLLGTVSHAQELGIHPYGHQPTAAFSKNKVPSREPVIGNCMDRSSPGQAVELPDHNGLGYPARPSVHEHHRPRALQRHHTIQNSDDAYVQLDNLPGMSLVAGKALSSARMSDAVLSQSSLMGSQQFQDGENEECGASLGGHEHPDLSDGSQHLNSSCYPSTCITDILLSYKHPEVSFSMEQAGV
Summary of the method: as §1

[3] = target: DAPK3 (Homo sapiens, UniProt O43293)
Summary of the method: as §1

[4] = target: T3, ABL1(Y253F)-phosphorylated (Homo sapiens, UniProt P00519, Y253F)
T3 construct: phosphorylated
Summary of the method: as §1

[5] = target: T4, p38-alpha (Homo sapiens, UniProt Q16539)
T4 construct: gene MAPK14
Summary of the method: as §1

[6] = target: BRAF (Homo sapiens, UniProt P15056)
Summary of the method: as §1

[7] = target: T5, MST2 (Homo sapiens, UniProt Q13188)
T5 construct: gene STK3
Summary of the method: as §1

[8] = target: PDGFRA (Homo sapiens, UniProt P16234)
Summary of the method: as §1

[9] = target: T6, MST3 (Homo sapiens, UniProt Q9Y6E0)
T6 construct: gene STK24
Summary of the method: as §1

[10] = target: T7, HPK1 (Homo sapiens, UniProt Q92918)
T7 construct: gene MAP4K1
T7 sequence (Q92918 whole entry): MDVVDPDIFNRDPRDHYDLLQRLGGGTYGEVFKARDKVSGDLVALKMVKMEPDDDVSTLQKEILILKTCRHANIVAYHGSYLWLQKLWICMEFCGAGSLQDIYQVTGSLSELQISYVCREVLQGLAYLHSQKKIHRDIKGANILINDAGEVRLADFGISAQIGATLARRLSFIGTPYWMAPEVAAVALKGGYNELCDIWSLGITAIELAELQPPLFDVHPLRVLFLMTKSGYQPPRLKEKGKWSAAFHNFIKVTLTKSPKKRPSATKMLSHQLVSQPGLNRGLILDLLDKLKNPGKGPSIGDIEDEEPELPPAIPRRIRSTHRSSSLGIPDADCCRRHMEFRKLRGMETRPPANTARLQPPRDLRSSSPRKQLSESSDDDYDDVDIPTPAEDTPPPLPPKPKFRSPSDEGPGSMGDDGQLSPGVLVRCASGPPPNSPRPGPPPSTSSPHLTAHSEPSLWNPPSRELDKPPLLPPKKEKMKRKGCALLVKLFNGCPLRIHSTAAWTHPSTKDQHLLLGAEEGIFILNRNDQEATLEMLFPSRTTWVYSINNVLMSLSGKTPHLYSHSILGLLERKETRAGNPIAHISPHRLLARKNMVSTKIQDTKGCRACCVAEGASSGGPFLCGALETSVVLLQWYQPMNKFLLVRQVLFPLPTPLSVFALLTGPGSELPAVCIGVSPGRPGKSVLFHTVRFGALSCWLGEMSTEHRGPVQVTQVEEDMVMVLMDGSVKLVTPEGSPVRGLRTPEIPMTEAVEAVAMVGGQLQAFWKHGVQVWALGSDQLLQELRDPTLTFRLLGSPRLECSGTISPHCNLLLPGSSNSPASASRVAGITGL
Summary of the method: as §1

[11] = target: T8, TYK2(JH2domain-pseudokinase) (Homo sapiens, UniProt P29597)
T8 construct: JH2domain-pseudokinase
T8 sequence (P29597 whole entry): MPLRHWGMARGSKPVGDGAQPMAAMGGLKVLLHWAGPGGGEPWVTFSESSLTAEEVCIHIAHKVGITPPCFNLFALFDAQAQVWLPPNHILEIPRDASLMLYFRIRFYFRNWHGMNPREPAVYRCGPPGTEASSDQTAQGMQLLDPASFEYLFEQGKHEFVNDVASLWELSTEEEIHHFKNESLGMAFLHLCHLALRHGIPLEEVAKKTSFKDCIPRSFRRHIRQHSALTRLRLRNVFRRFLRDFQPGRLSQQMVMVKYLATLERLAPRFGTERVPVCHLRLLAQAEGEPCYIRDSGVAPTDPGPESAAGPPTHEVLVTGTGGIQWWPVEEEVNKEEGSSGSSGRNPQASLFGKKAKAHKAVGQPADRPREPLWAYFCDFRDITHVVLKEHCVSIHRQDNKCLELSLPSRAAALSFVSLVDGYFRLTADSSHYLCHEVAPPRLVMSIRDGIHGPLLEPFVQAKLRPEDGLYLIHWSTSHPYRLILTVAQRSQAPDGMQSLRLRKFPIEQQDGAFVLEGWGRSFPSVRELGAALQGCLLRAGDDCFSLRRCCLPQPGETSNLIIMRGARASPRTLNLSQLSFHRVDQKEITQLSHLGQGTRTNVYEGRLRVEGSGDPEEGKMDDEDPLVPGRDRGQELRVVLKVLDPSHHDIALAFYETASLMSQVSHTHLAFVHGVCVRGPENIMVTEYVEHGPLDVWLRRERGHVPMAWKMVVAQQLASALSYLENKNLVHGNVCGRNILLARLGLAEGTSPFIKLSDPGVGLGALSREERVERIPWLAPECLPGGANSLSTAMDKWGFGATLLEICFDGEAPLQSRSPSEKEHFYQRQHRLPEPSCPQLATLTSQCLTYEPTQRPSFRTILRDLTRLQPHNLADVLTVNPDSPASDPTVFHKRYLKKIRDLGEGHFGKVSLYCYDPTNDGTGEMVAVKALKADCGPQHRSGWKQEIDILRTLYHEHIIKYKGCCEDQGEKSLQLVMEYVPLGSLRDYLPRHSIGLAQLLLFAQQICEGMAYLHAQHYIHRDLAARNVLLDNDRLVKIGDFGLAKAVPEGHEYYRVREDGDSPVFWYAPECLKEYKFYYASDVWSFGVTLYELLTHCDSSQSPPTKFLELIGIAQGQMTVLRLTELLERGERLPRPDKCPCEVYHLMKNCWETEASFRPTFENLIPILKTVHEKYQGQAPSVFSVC
Summary of the method: as §1

[12] = target: MAP3K3 (Homo sapiens, UniProt Q99759)
Summary of the method: as §1

[13] = target: T9, BRK (Homo sapiens, UniProt Q13882)
T9 construct: gene PTK6
T9 sequence (Q13882 whole entry): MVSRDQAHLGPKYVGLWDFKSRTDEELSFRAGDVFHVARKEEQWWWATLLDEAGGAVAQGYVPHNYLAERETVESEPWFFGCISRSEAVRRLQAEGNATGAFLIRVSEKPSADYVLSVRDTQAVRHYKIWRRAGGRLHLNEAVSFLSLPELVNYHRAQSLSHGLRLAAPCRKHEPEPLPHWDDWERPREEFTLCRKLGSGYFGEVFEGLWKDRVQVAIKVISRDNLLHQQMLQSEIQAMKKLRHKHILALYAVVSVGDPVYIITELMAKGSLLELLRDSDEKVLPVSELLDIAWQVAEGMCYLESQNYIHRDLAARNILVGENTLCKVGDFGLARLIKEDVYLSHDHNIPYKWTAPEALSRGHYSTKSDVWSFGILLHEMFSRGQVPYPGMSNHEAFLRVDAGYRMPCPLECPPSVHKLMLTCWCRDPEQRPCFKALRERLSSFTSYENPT
Summary of the method: as §1

[14] = target: T10, ABL1(T315I)-nonphosphorylated (Homo sapiens, UniProt P00519, T315I)
T10 construct: nonphosphorylated
Summary of the method: as §1

[15] = target: FRK (Homo sapiens, UniProt P42685)
Summary of the method: as §1

[16] = target: GRK1 (Homo sapiens, UniProt Q15835)
Sequence of GRK1 (Q15835 whole entry): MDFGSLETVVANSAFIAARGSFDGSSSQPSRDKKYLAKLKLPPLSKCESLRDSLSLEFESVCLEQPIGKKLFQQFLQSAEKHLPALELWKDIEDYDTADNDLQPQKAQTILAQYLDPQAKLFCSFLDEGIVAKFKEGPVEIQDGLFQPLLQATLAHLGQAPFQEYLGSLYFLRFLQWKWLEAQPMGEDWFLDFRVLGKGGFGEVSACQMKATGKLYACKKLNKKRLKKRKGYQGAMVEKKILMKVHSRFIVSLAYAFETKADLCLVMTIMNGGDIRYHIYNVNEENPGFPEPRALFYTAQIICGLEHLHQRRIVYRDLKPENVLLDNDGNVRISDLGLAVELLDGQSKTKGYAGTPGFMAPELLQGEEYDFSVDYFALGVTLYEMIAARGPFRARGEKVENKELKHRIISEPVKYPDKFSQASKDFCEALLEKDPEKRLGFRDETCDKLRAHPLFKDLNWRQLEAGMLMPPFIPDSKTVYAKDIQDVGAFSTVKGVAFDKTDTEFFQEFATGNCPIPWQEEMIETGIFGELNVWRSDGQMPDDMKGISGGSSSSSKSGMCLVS
Summary of the method: as §1

[17] = target: MAP4K3 (Homo sapiens, UniProt Q8IVH8)
Summary of the method: as §1

[18] = target: CAMKK1 (Homo sapiens, UniProt Q8N5S9)
Summary of the method: as §1

[19] = target: EPHA2 (Homo sapiens, UniProt P29317)
Summary of the method: as §1

[20] = target: T11, ARK5 (Homo sapiens, UniProt O60285)
T11 construct: gene NUAK1
Summary of the method: as §1

[21] = target: EPHA4 (Homo sapiens, UniProt P54764)
Summary of the method: as §1

T1 sequence (Q9UK32 whole entry): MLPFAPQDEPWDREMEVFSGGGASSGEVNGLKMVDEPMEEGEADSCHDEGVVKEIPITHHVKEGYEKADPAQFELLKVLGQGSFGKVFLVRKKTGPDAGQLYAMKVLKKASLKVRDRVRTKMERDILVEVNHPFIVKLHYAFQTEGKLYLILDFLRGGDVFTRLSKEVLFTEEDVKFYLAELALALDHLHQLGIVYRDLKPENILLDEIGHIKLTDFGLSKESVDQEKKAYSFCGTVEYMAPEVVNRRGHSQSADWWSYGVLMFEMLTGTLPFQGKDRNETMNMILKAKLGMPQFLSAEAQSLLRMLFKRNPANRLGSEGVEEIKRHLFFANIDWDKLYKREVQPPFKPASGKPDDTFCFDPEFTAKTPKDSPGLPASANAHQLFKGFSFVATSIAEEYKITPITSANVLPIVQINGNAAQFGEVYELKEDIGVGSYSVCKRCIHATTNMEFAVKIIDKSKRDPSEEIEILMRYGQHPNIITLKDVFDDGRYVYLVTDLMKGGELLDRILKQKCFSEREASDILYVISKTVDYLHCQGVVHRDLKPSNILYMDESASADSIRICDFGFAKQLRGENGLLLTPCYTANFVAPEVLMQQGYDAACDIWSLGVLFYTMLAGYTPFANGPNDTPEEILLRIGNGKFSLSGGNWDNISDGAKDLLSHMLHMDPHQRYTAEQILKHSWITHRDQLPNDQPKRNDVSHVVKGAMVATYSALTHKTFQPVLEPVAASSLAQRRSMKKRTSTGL

Cc1ncccc1Oc1sc(C(N)=O)c2c1-c1c(cnn1C)CC2 [T-474, 1-methyl-8-((2-methylpyridin-3-yl)oxy)-4,5-dihydro-1H-thieno[3,4-g]indazole-6-carboxamide]
remaining binding at 0.3 µM [1]: 100%
remaining binding at 0.3 µM [2]: 93%
remaining binding at 0.3 µM [3]: 100%
remaining binding at 0.3 µM [4]: 100%
remaining binding at 0.3 µM [5]: 99%
remaining binding at 0.3 µM [6]: 100%
remaining binding at 0.3 µM [7]: 50%
remaining binding at 0.3 µM [8]: 96%
remaining binding at 0.3 µM [9]: 100%
remaining binding at 0.3 µM [10]: 78%
remaining binding at 0.3 µM [11]: 100%
remaining binding at 0.3 µM [12]: 100%
remaining binding at 0.3 µM [13]: 100%
remaining binding at 0.3 µM [14]: 100%
remaining binding at 0.3 µM [15]: 97%
remaining binding at 0.3 µM [16]: 100%
remaining binding at 0.3 µM [17]: 100%
remaining binding at 0.3 µM [18]: 100%
remaining binding at 0.3 µM [19]: 86%
remaining binding at 0.3 µM [20]: 100%
remaining binding at 0.3 µM [21]: 100%

O=C(/C=C/c1cnccc1-c1ccc(F)cc1)Nc1ccc(CCc2nnco2)cc1 [T-418, (2E)-3-(4-(4-fluorophenyl)pyridin-3-yl)-N-(4-(2-(1,3,4-oxadiazol-2-yl)ethyl)phenyl)acrylamide]
remaining binding at 0.3 µM ([1]; sheet T-418): 100%
remaining binding at 0.3 µM ([2]; sheet T-418): 95%
remaining binding at 0.3 µM ([3]; sheet T-418): 83%
remaining binding at 0.3 µM ([4]; sheet T-418): 98%
remaining binding at 0.3 µM ([5]; sheet T-418): 100%
remaining binding at 0.3 µM ([6]; sheet T-418): 100%
remaining binding at 0.3 µM ([7]; sheet T-418): 46%
remaining binding at 0.3 µM ([8]; sheet T-418): 97%
remaining binding at 0.3 µM ([9]; sheet T-418): 100%
remaining binding at 0.3 µM ([10]; sheet T-418): 95%
remaining binding at 0.3 µM ([11]; sheet T-418): 100%
remaining binding at 0.3 µM ([12]; sheet T-418): 94%
remaining binding at 0.3 µM ([13]; sheet T-418): 87%
remaining binding at 0.3 µM ([14]; sheet T-418): 100%
remaining binding at 0.3 µM ([15]; sheet T-418): 97%
remaining binding at 0.3 µM ([16]; sheet T-418): 100%
remaining binding at 0.3 µM ([17]; sheet T-418): 82%
remaining binding at 0.3 µM ([18]; sheet T-418): 100%
remaining binding at 0.3 µM ([19]; sheet T-418): 100%
remaining binding at 0.3 µM ([20]; sheet T-418): 100%
remaining binding at 0.3 µM ([21]; sheet T-418): 100%
